Measured values published in patent US9663463B2, “3-azabicyclo[3.1.0]hexane derivative and use thereof for medical purpose” (priority 2013, dated 2017).
Where a name gives a salt, the structure may show the parent alone.

Key:
human μ-opioid receptor = human μ-opioid receptor (Homo sapiens (Human), UniProt P35372); assay: Antagonist activity test using [35S]-GTPγS bond as index using human μ-opioid receptor-expressing cell membrane; format: biochemical
Description: Cells in which a human μ-opioid receptor had been highly expressed was purchased from ChanTest (Cleveland). The cells were cultured in a carbon dioxide gas culturing apparatus by using a Ham's F12 culture medium (Invitrogen) containing 10% of fetal bovine blood serum, 1% of non-essential amino acids, 0.4 mg/ml of G418, 100 U/ml of penicillin and 100 μg/ml of streptomycin. The cultured cells were suspended by using a 0.25% trypsin 1 mM EDTA solution, the suspension was collected by using phosphate-buffered saline and centrifuged at 4° C. and 1,000 rpm for 10 minute to remove the supernatant, whereby a cell mass was obtained. […] Similar homogenization and centrifugation operations were repeated on the sediment, a homogenized buffer was added again to the obtained sediment, and the resultant was similarly homogenized to give a membrane fraction solution. The obtained membrane fraction solution was dispensed, rapidly frozen and stored under freezing at −70° C. or less until use. Furthermore, the protein concentration of the obtained membrane fraction solution was measured by using a BCA protein Assay Kit (Cat. 23227, Pierce) according to the protocol attached to the kit.
The cell membrane fraction solution in which the human μ-opioid receptor had expressed, which had been stored under freezing, was melted, a GTP assay buffer (100 mM NaCl, 5 mM MgCl2, 1 mM EDTA-containing 50 mM Hepes (pH 7.4)) was added thereto, and the resultant was homogenized repeatedly twice by using a Polytron homogenizer (SMT Multi Disperser PB95) under ice cooling at 12,000 rpm for 20 seconds to give a homogeneous solution, and the homogeneous solution was diluted to 0.036 mg/ml with a GTP assay buffer containing 18.2 μM of GDP (final concentration: […]). The dilution was incubated for 15 minutes or more under ice cooling until the reaction was initiated. […] [^35S]-GTPγS (NEG030X, Perkinelmer) was diluted with a GTP assay buffer so as to be 0.616 nM (final concentration: 0.08 nM). The resultant was diluted with a GTP assay buffer so as to be 200 nM (final concentration: 10 nM) by using [D-Ala^2, N-Me-Phe^4, Gly^5-ol]-enkephalinacetate (DAMGO, Sigma) as a μ-opioid receptor agonist. WGA Coated PVT SPA Beads (RPNQ0001, Perkinelmer) were added so as to be 20 mg/ml with a GTP assay buffer, and the resultant was suspended (final concentration: 1 mg/well). 4 μL/well of a test substance solution, 10 μL/well of a DAMGO solution, 26 μL/well of a [^35S]-GTPγS solution, […] of a suspension liquid of WGA Coated PVT SPA Beads, and 110 μL/well of the membrane fraction solution were added to a 96 well plate (1450-401, Perkinelmer), the top part of the plate was sealed, and a reaction was performed at 30° C. for 60 minutes under stirring with a plate shaker. For each measurement plate, a well to which DMSO had been added instead of the test substance, and a well to which DMSO had been added instead of the test substance and a GTP assay buffer had been added instead of the DAMGO solution were prepared. Furthermore, after the reaction was completed, the reactant was centrifuged at room temperature and 1,000 rpm for 3 minutes, and the radioactivity was measured by a microplate scintillation luminescence counter (Perkinelmer).
The IC50 value of the test substance was calculated by using Graphpad Prism 5.

in vitro = in vitro ADME, mice; details: Crl:CD-1 (ICR), mouse, pH 7.4; murine serum, equilibrium dialysis, 37° C., 5 to 6 hours; read-out: Protein binding rate (converted)
Description: The protein binding rate was determined by equilibrium dialysis method using the RED Device (8K MWCO, Rapid Equilibrium Dialysis Device, Thermo Scientific). The test substances that had been dissolved in DMSO were added to the serum that was collected from Crl: CD-1 (ICR) mice fasted overnight, so that the final concentration of DMSO became 1% (v/v). The serum to which the test substance had been added was added to the inner side of the dialysis membrane of the RED Device, and PBS (phosphate buffer saline, pH 7.4) containing 0.01% (v/v) Tween 80 was added to the outside in accordance with the method for using the RED Device and incubated at 37° C. for 5 to 6 hours with ellipsoidal shaking at 100 rpm so that the concentration of the unbound test substance in the serum and the concentration of the test substance in the PBS reached equilibrium. After the incubation was completed, the respective solutions were collected and stored under freezing at −60° C. or less as measurement samples. The proteins were removed from the measurement sample by adding acetonitrile in an amount of 5-fold or more of the amount of the internal standard substance and the serum sample, and the supernatants were measured by LC/MS/MS (liquid chromatograph—triple quadrupole mass spectrometer). The serum samples were measured after suitably diluting with distilled water as necessary.
A: the concentration of the test substance in the PBS sample
B: the concentration of the test substance in the serum sample

[1] = Plasma concentration of test substance at ED50 value (mice, LC/MS/MS); format: in vivo; details: at the ED50 value, at time of morphine administration, oral, linear regression from two doses
Description: The concentration of the test substances in blood plasma was confirmed by using mice of the same week-old for the same dose as that used in the evaluation of the anti-pruritic effect. The test substance was administered by forced oral administration of an administration vehicle prepared in a similar manner to that in the evaluation of the anti-pruritic effect under a non-fasting condition. The blood samples were collected from the orbital venous plexus, within from 15 minutes after the administration of the test substance to after 180 minutes at the maximum, for multiple times including the timing at which the morphine solution was intracisternally administered, under inhalation anesthesia with diethyl ether or isoflurane using a heparin-treated hematocrit tubes. The collected blood samples were immediately ice-cooled and centrifuged at 1,800 g for 15 minutes at 4° C., and the plasma fractions were transferred and stored under freezing at −30° C. or less until measurement.
The concentrations of the test substances in plasma were measured using LC/MS/MS. Furthermore, as the measurement samples for LC/MS/MS, the supernatants obtained by adding an internal standard substance and acetonitrile in an amount within a range from 5-fold to 10-fold of the amount of the plasma to the collected plasma samples, and removing proteins therefrom, was used.

[2] = system: pruritus mice model to which morphine had been intracisternally administered; assay: Anti-pruritic effect in pruritus mice model to which morphine had been intracisternally administered; format: in vivo; details: Mus musculus; oral administration, male ICR mice, inhibition of morphine-induced scratching behavior; read-out: ED50
Description: As experimental animals, male ICR (Cr1j: CD1 (ICR): Charles River Japan) mice were used at 5 to 6-week old. The mice were placed in an acrylic cage (colorless and transparent, W 13.5 cm×D 9.5 cm×H 40 cm) for observing scratching behavior for 30 minutes or more to thereby allow the mice to get used to the observation environment, and the test substance solutions were forcedly orally administered to the test substance-administered groups. In addition, an administration vehicle was forcedly orally administered to the normal control group and the pathological control group. A necessary amount of the test substance was weighed and formed into a micropowder in an agate mortar, an administration vehicle, a 0.5 w/v % methyl cellulose 400 solution (Wako Pure Chemical Industries Ltd.) was added little by little, and preparation was performed by suspending or dissolving so as to give an intended concentration (from 0.025 to 3 mg/ml). The test doses were preset to suitable doses in the range in which the maximum dose is 30 mg/10 ml/kg.
Based on 30 minutes after the forced oral administration of the test substance as a criterion, the time for the intracisternal administration of morphine was suitably set up to 120 minutes after at the maximum, with consideration for the times of maximum plasma concentration of the respective test substances, in the case when the in vivo pharmacokinetics of the test substance had been confirmed in advance. Furthermore, saline was intracisternally administered to the normal control group, and the above-mentioned morphine solution was intracisternally administered to the pathogenic control group, so as to be 5 μL/site at the same time as that of the test substance group after the forced oral administration of the administration vehicle in either case.
The behavior of each mouse within 60 minutes from the intracisternal administration of the morphine solution or saline was recorded by a digital video camera that was installed immediately above the acrylic cage, the images were stored in a digital video recorder, and the number of frequency of the scratching behavior was measured. The number of frequency of the scratching behavior was measured with deeming a behavior in which the mouse raised its hindlimb, scratched the facial surface and the peripheral sites thereof, and got the hindlimb off from the body within 30 minutes from after the intracisternal administration of the morphine or saline as one time.
The anti-pruritic effect of each test substance was obtained as follows. As an inhibition ratio against the number of frequency of the scratching behavior on the pathological control group, the inhibition ratio (%) of the respective individuals and the average value thereof were calculated from the following formula, and an ED50 value was calculated based on the obtained inhibition ratio. Inhibition ratio of each individual (%)={1−(A−Vehicle)/(Morphine−Vehicle)}×100 Morphine: the average of the scratching number of the pathological control group Vehicle: the average of the scratching number of the normal control group A: the scratching number of each individual in the test substance-administered group

hERG current = hERG current (Homo sapiens (Human), UniProt Q12809); assay: cell-based
hERG current, sequence (Q12809 whole entry): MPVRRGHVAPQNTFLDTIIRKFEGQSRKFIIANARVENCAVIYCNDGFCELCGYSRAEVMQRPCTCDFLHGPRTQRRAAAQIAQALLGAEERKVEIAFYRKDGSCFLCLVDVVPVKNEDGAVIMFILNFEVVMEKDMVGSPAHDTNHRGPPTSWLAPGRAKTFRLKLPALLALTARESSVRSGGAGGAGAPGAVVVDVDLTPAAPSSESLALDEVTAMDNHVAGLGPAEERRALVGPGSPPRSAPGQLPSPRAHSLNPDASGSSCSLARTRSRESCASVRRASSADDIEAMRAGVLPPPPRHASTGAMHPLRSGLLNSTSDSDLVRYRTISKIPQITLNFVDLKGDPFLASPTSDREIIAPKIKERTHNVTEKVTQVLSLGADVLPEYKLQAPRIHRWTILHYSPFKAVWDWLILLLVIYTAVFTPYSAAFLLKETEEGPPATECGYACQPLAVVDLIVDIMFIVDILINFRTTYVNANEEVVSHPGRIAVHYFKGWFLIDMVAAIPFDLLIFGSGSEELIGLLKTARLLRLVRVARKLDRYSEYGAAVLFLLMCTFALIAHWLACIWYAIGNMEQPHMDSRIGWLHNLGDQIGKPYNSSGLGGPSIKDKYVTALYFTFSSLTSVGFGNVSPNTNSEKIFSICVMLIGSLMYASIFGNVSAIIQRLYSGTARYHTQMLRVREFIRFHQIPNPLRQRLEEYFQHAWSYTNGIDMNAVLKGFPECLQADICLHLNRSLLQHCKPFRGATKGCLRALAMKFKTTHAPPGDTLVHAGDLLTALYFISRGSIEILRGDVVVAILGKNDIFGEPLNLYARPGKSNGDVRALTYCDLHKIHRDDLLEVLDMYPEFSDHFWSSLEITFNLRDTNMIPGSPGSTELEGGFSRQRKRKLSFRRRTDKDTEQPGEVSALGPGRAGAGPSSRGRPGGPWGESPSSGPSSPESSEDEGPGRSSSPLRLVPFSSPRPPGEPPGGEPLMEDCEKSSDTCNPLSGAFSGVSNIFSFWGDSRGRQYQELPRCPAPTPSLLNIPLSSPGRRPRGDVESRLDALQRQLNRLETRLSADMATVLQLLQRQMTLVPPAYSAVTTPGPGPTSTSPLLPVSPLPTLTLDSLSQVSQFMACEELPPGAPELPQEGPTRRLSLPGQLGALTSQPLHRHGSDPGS
Excerpt: A: the suppression rate (%) of the test substance in each cell
B: the average suppression rate (%) of the vehicle control group

`CC[C@]1(c2cccc(NS(=O)(=O)C3CC3)c2)[C@@H]2CN(CC3(O)Cc4ccccc4C3)C[C@@H]21` [Example 1-(b), N-(3-{(1R,5S,6r)-6-ethyl-3-[(2-hydroxy-2,3-dihydro-1H-inden-2-yl)methyl]-3-azabicyclo[3.1.0]hexan-6-yl}phenyl)cyclopropanesulfonamide hydrochloride] gave an IC50 (human μ-opioid receptor) of 1.5 nM.
With `CC[C@]1(c2cc(NS(=O)(=O)C3CC3)ccc2F)[C@@H]2CN(CCCN3CCC(F)(F)C3)C[C@@H]21` [Example 9-(b), N-(3-{(1R,5S,6r)-3-[3-(3,3-difluoropyrrolidin-1-yl)propyl]-6-ethyl-3-azabicyclo[3.1.0]hexan-6-yl}-4-fluorophenyl)cyclopropanesulfonamide hydrochloride] the fraction unbound (in vitro) was 0.173 and the IC50 (human μ-opioid receptor) was 2.5 nM.
`CC[C@]1(c2cc(NS(=O)(=O)C3CC3)ccc2F)[C@@H]2CN(CC3(OC)Cc4ccccc4C3)C[C@@H]21` [Example 11-(b), N-(3-{(1R,5S,6r)-6-ethyl-3-[(2-methoxy-2,3-dihydro-1H-inden-2-yl)methyl]-3-azabicyclo[3.1.0]hexan-6-yl}-4-fluorophenyl)cyclopropanesulfonamide hydrochloride] showed an IC50 (human μ-opioid receptor) of 2.8 nM.
In the case of `CC[C@]1(c2cc(F)cc(NS(=O)(=O)C3CC3)c2)[C@@H]2CN(CC3(OC)Cc4ccccc4C3)C[C@@H]21` [Example 12-(b), N-(3-{(1R,5S,6r)-6-ethyl-3-[(2-methoxy-2,3-dihydro-1H-inden-2-yl)methyl]-3-azabicyclo[3.1.0]hexan-6-yl}-5-fluorophenyl)cyclopropanesulfonamide hydrochloride], the fraction unbound (in vitro) is reported as 0.002, the IC50 (human μ-opioid receptor) is reported as 12 nM and the “Plasma concentration of test substance” value [1] is reported as 193 nM. For the same compound, the ED50 [2] was 3.2 mg/kg.
In the case of `CCOC1(CN2C[C@@H]3[C@H](C2)[C@@]3(CC)c2cccc(NS(=O)(=O)C3CC3)c2)Cc2ccccc2C1` [Example 13-(b), N-(3-{(1R,5S,6r)-3-[(2-ethoxy-2,3-dihydro-1H-inden-2-yl)methyl]-6-ethyl-3-azabicyclo[3.1.0]hexan-6-yl}phenyl)cyclopropanesulfonamide hydrochloride], the IC50 (human μ-opioid receptor) is reported as 4.1 nM, the “Plasma concentration of test substance” value [1] is reported as 71.9 nM and the ED50 [2] is reported as 2.4 mg/kg.
Compound `CCOC1(CCCN2C[C@@H]3[C@H](C2)[C@@]3(CC)c2cccc(NS(=O)(=O)C3CC3)c2)CCC(F)(F)CC1` [Example 14-(b), N-(3-{(1R,5S,6r)-3-[3-(1-ethoxy-4,4-difluorocyclohexyl)propyl]-6-ethyl-3-azabicyclo[3.1.0]hexan-6-yl}phenyl)cyclopropanesulfonamide hydrochloride] has an IC50 (human μ-opioid receptor) of 1.3 nM.
In the case of `COC1(CN2C[C@@H]3[C@H](C2)[C@@]3(C)c2cccc(NS(=O)(=O)C3CC3)c2)Cc2ccccc2C1` [Example 18-(b), N-(3-{(1R,5S,6r)-3-[(2-methoxy-2,3-dihydro-1H-inden-2-yl)methyl]-6-methyl-3-azabicyclo[3.1.0]hexan-6-yl}phenyl)cyclopropanesulfonamide hydrochloride], the fraction unbound (in vitro) is reported as 0.007, the IC50 (human μ-opioid receptor) is reported as 16 nM and the IC50 (hERG current) is reported as 400 nM.
For `C=C[C@]1(c2cccc(NS(=O)(=O)C3CC3)c2)[C@@H]2CN(CC3(O)Cc4ccccc4C3)C[C@@H]21` [Example 19-(b), N-(3-{(1R,5S,6r)-3-[(2-hydroxy-2,3-dihydro-1H-inden-2-yl)methyl]-6-vinyl-3-azabicyclo[3.1.0]hexan-6-yl}phenyl)cyclopropanesulfonamide hydrochloride], the fraction unbound (in vitro) was 0.009 and the IC50 (human μ-opioid receptor) was 4.5 nM.
With `CC[C@]1(c2cccc(NS(=O)(=O)C3CC3)c2)[C@@H]2CN(CC3(O)Cc4cc(F)c(F)cc4C3)C[C@@H]21` [Example 20-(a), N-(3-{(1R,5S,6r)-3-[(5,6-difluoro-2-hydroxy-2,3-dihydro-1H-inden-2-yl)methyl]-6-ethyl-3-azabicyclo[3.1.0]hexan-6-yl}phenyl)cyclopropanesulfonamide] the fraction unbound (in vitro) was 0.006 and the IC50 (human μ-opioid receptor) was 4.1 nM.
